Measurements published in US10760110B2, “Antibiotic testing and screening system” (priority 2017, dated 2020).
Like-named read-outs stand apart in the source and are kept apart here.

Tests used:
[1] = test system: K. pneumoniae NVT1001 and its ΔompK35/36 and/or ΔramR mutants; assay: Etest MIC, OmpK35/36 loss and AcrAB-TolC overexpression (ΔramR) strains (Table 6); type: cell-based, Klebsiella pneumoniae; details: Klebsiella pneumoniae
Method in brief: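 First, Etest determined each antibiotic's MIC, and intermediate results were adjusted upward to the next doubling dilution. Next, ceftazidime and cefotaxime were titrated in broth according to CLSI recommendations. Finally, results were interpreted with CLSI 2017 breakpoints, substituting CLSI 2015 for cephalothin and EUCAST 2017 for moxifloxacin.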

[2] = test system: K. pneumoniae NVT1001 ΔramRΔompK35/36 mutant and its revertants; assay: Etest MIC, ΔramRΔompK35/36 mutant and its revertants (Table 7); type: cell-based; details: Klebsiella pneumoniae
[3] = test system: K. pneumoniae NVT1001 strains with carbapenemase plasmids; assay: Etest MIC of β-lactams, OmpK35/36 loss, ΔramR and/or carbapenemase (Table 9); type: cell-based, Klebsiella pneumoniae; details: for MIC: Klebsiella pneumoniae
Protocol: DNA fragments of the resistance genes along with their flanking regions were amplified from clinical plasmids via PCR with specific primer pairs. The resulting PCR fragments were digested and then cloned into the plasmid pACYC177 or pACYC184. The resulting plasmids were then transformed into K. pneumoniae strain NVT1001 via electroporation. The recombinant bacteria were plated onto LB agar plates containing kanamycin (50 mg/L) or chloramphenicol (50 mg/L), and the presence of the cloned gene was confirmed via PCR and DNA sequencing.
The MICs of antibiotics were determined using the Etest (Biodisk AB, Sweden) according to the manufacturer's instructions. The MICs from the Etest, which fall between standard two-fold dilutions, were rounded up to the next highest two-fold value. The MICs of ceftazidime and cefotaxime against K. pneumoniae NVT1001 harbouring the pACYC177 plasmid with blaOXA-48 were further determined using a broth microdilution test according to the recommendations of the CLSI,^25 and the results were interpreted according to the breakpoints established by the CLSI in 2017.^25 Meanwhile, due to the lack of CLSI breakpoints in 2016 and 2017, the results for cephalothin were interpreted according to the breakpoints established by the CLSI in 2015,^26 and the results for moxifloxacin were interpreted according to the breakpoints established by the EUCAST in 2017.^27

[4] = ΔramRΔ35/36, ΔramRΔompK35/36 mutant
[5] = ΔramRΔompK35/36::ompK35/36 revertant
[6] = ΔramRΔompK35/36::ompK35 revertant
[7] = ΔramRΔompK35/36::ompK36 revertant
[8] = ΔramRΔompK35/36::ramR revertant
[9] = ΔramRΔompK35/36::ramR::ompK35/36 revertant
[10] = ΔramRΔompK35/36::ramR::ompK35 revertant
[11] = ΔramRΔompK35/36::ramR::ompK36 revertant
[12] = IMP-8 on pACYC177, WT (NVT1001), read-out: MIC
[13] = IMP-8 on pACYC177, Δ35 (ΔompK35 mutant)
[14] = IMP-8 on pACYC177, Δ35/36 (ΔompK35/36 mutant)
[15] = IMP-8 on pACYC177, Δ36 (ΔompK36 mutant)
[16] = IMP-8 on pACYC177, ΔramR mutant
[17] = IMP-8 on pACYC177, ΔramRΔ35 (ΔramRΔompK35 mutant)
[18] = IMP-8 on pACYC177, ΔramRΔ35/36 (ΔramRΔompK35/36 mutant)
[19] = IMP-8 on pACYC177, ΔramRΔ36 (ΔramRΔompK36 mutant)
[20] = KPC-2 on pACYC177, WT (NVT1001), read-out: MIC
[21] = KPC-2 on pACYC177, Δ35 (ΔompK35 mutant)
[22] = KPC-2 on pACYC177, Δ35/36 (ΔompK35/36 mutant)
[23] = KPC-2 on pACYC177, Δ36 (ΔompK36 mutant)
[24] = KPC-2 on pACYC177, ΔramR mutant
[25] = KPC-2 on pACYC177, ΔramRΔ35 (ΔramRΔompK35 mutant)
[26] = KPC-2 on pACYC177, ΔramRΔ35/36 (ΔramRΔompK35/36 mutant)
[27] = KPC-2 on pACYC177, ΔramRΔ36 (ΔramRΔompK36 mutant)
[28] = KPC-3 on pACYC177, WT (NVT1001), read-out: MIC
[29] = KPC-3 on pACYC177, Δ35 (ΔompK35 mutant)
[30] = KPC-3 on pACYC177, Δ35/36 (ΔompK35/36 mutant)
[31] = KPC-3 on pACYC177, Δ36 (ΔompK36 mutant)
[32] = KPC-3 on pACYC177, ΔramR mutant
[33] = KPC-3 on pACYC177, ΔramRΔ35 (ΔramRΔompK35 mutant)
[34] = KPC-3 on pACYC177, ΔramRΔ35/36 (ΔramRΔompK35/36 mutant)
[35] = KPC-3 on pACYC177, ΔramRΔ36 (ΔramRΔompK36 mutant)
[36] = NDM-1 on pACYC177, WT (NVT1001), read-out: MIC
[37] = NDM-1 on pACYC177, Δ35 (ΔompK35 mutant)
[38] = NDM-1 on pACYC177, Δ35/36 (ΔompK35/36 mutant)
[39] = NDM-1 on pACYC177, Δ36 (ΔompK36 mutant)
[40] = NDM-1 on pACYC177, ΔramR mutant
[41] = NDM-1 on pACYC177, ΔramRΔ35 (ΔramRΔompK35 mutant)
[42] = NDM-1 on pACYC177, ΔramRΔ35/36 (ΔramRΔompK35/36 mutant)
[43] = NDM-1 on pACYC177, ΔramRΔ36 (ΔramRΔompK36 mutant)
[44] = OXA-48 on pACYC177, WT (NVT1001), read-out: MIC
[45] = OXA-48 on pACYC177, Δ35 (ΔompK35 mutant)
[46] = OXA-48 on pACYC177, Δ35/36 (ΔompK35/36 mutant)
[47] = OXA-48 on pACYC177, Δ36 (ΔompK36 mutant)
[48] = OXA-48 on pACYC177, ΔramR mutant
[49] = OXA-48 on pACYC177, ΔramRΔ35 (ΔramRΔompK35 mutant)
[50] = OXA-48 on pACYC177, ΔramRΔ35/36 (ΔramRΔompK35/36 mutant)
[51] = OXA-48 on pACYC177, ΔramRΔ36 (ΔramRΔompK36 mutant)
[52] = VIM-1 on pACYC177, WT (NVT1001), read-out: MIC
[53] = VIM-1 on pACYC177, Δ35 (ΔompK35 mutant)
[54] = VIM-1 on pACYC177, Δ35/36 (ΔompK35/36 mutant)
[55] = VIM-1 on pACYC177, Δ36 (ΔompK36 mutant)
[56] = VIM-1 on pACYC177, ΔramR mutant
[57] = VIM-1 on pACYC177, ΔramRΔ35 (ΔramRΔompK35 mutant)
[58] = VIM-1 on pACYC177, ΔramRΔ35/36 (ΔramRΔompK35/36 mutant)
[59] = VIM-1 on pACYC177, ΔramRΔ36 (ΔramRΔompK36 mutant)
[60] = no supplemental plasmid, WT (NVT1001), read-out: MIC
[61] = no supplemental plasmid, Δ35 (ΔompK35 mutant)
[62] = no supplemental plasmid, Δ35/36 (ΔompK35/36 mutant)
[63] = no supplemental plasmid, Δ36 (ΔompK36 mutant)
[64] = no supplemental plasmid, ΔramR mutant
[65] = no supplemental plasmid, ΔramRΔ35 (ΔramRΔompK35 mutant)
[66] = no supplemental plasmid, ΔramRΔ35/36 (ΔramRΔompK35/36 mutant)
[67] = no supplemental plasmid, ΔramRΔ36 (ΔramRΔompK36 mutant)

CO[C@@]1(NC(=O)Cc2cccs2)C(=O)N2C(C(=O)O)=C(COC(N)=O)CS[C@@H]21 [Cefoxitin]
16 µg/mL: MIC ([1]; Δ36, ΔompK36 mutant) | MIC [2, 10] | MIC [3, 20] | MIC [3, 28] | MIC [3, 47] | MIC [3, 63]
128 µg/mL: MIC ([1]; Δ35/36, ΔompK35/36 mutant) | MIC [3, 24] | MIC [3, 25] | MIC [3, 32] | MIC [3, 33] | MIC [3, 46] | MIC [3, 48] | MIC [3, 62]
64 µg/mL: MIC ([1]; ΔramR mutant) | MIC ([1]; ΔramRΔ35, ΔramRΔompK35 mutant) | MIC [2, 5] | MIC [2, 7] | MIC [2, 8] | MIC [3, 23] | MIC [3, 31] | MIC [3, 49] | MIC [3, 64] | MIC [3, 65]
32 µg/mL: MIC [3, 21] | MIC [3, 29]
4 µg/mL: MIC ([1]; WT, NVT1001, read-out: MIC) | MIC ([1]; Δ35, ΔompK35 mutant) | MIC [2, 9] | MIC [3, 44] | MIC [3, 60] | MIC [3, 61]
intermediate resistance: resistance category ([3]; production of KPC-2 or KPC-3 alone)
8 µg/mL: MIC [2, 11] | MIC [3, 45]
> 256 µg/mL: MIC [1, 4] | MIC ([1]; ΔramRΔ36, ΔramRΔompK36 mutant) | MIC [2, 6] | MIC ([2]; ΔramRΔompK35/36 mutant) | MIC [3, 12] | MIC [3, 13] | MIC [3, 14] | MIC [3, 15] | MIC [3, 16] | MIC [3, 17] | MIC [3, 18] | MIC [3, 19] | MIC [3, 22] | MIC [3, 26] | MIC [3, 27] | MIC [3, 30] | MIC [3, 34] | MIC [3, 35] | MIC [3, 36] | MIC [3, 37] | MIC [3, 38] | MIC [3, 39] | MIC [3, 40] | MIC [3, 41] | MIC [3, 42] | MIC [3, 43] | MIC [3, 50] | MIC [3, 51] | MIC [3, 52] | MIC [3, 53] | MIC [3, 54] | MIC [3, 55] | MIC [3, 56] | MIC [3, 57] | MIC [3, 58] | MIC [3, 59] | MIC [3, 66] | MIC [3, 67]

CCO/N=C(\C(=O)N[C@@H]1C(=O)N2C(C(=O)[O-])=C(Sc3nc(-c4cc[n+](C)cc4)cs3)CS[C@H]12)c1nsc(N)n1 [Ceftaroline]
64 µg/mL: MIC [3, 12] | MIC [3, 13] | MIC [3, 15] | MIC [3, 17] | MIC [3, 19]
32 µg/mL: MIC [3, 16] | MIC [3, 46]
16 µg/mL: MIC [3, 50]
0.25 µg/mL: MIC ([1]; WT, NVT1001, read-out: MIC) | MIC ([1]; Δ35, ΔompK35 mutant) | MIC [2, 9] | MIC [3, 60] | MIC [3, 61]
> 256 µg/mL: MIC [3, 14] | MIC [3, 21] | MIC [3, 22] | MIC [3, 23] | MIC [3, 24] | MIC [3, 25] | MIC [3, 26] | MIC [3, 27] | MIC [3, 30] | MIC [3, 31] | MIC [3, 34] | MIC [3, 35] | MIC [3, 36] | MIC [3, 37] | MIC [3, 38] | MIC [3, 39] | MIC [3, 40] | MIC [3, 41] | MIC [3, 42] | MIC [3, 43] | MIC [3, 53] | MIC [3, 54] | MIC [3, 55] | MIC [3, 56] | MIC [3, 57] | MIC [3, 58] | MIC [3, 59]
4 µg/mL: MIC [1, 4] | MIC ([1]; ΔramRΔ36, ΔramRΔompK36 mutant) | MIC [2, 6] | MIC ([2]; ΔramRΔompK35/36 mutant) | MIC [3, 66] | MIC [3, 67]
0.5 µg/mL: MIC ([1]; Δ36, ΔompK36 mutant) | MIC [2, 10] | MIC [2, 11] | MIC [3, 63]
256 µg/mL: MIC [3, 20] | MIC [3, 28] | MIC [3, 29] | MIC [3, 32] | MIC [3, 33] | MIC [3, 52]
8 µg/mL: MIC [3, 44] | MIC [3, 45] | MIC [3, 47] | MIC [3, 48] | MIC [3, 49] | MIC [3, 51]
128 µg/mL: MIC [3, 18]
1 µg/mL: MIC ([1]; Δ35/36, ΔompK35/36 mutant) | MIC ([1]; ΔramR mutant) | MIC ([1]; ΔramRΔ35, ΔramRΔompK35 mutant) | MIC [2, 5] | MIC [2, 7] | MIC [2, 8] | MIC [3, 62] | MIC [3, 64] | MIC [3, 65]
